According to ChEMBL document CHEMBL1201862, “PubChem BioAssay data set” (2004):
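Where inhibition never reached the appropriate level, the endpoint shown equals the highest concentration tested. Otherwise, values were interpolated linearly from a five-concentration, 48-hour dose response in 96-well plates. The concentration for 50% growth inhibition is given as GI50.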 Active and inactive are the calls of the source. Cut-off read from the data, not from the text of the source: active = GI50 up to about 1.1 µM and inactive = higher.

Tests used:
Assay in all cases: DTP human tumour cell line panel, 48 h
[1] = system: 786-0
[2] = system: UO-31
[3] = system: SF-539
[4] = system: UACC-62
[5] = system: SK-MEL-2
[6] = system: BT-549
[7] = system: LXFL 529
[8] = system: SN12C
[9] = system: K562
[10] = system: SK-OV-3
[11] = system: COLO 205
[12] = system: HOP-92
[13] = system: SNB-75
[14] = system: A549
[15] = system: MDA-N
[16] = system: HOP-62
[17] = system: SW-620
[18] = system: SR
[19] = system: RXF 393
[20] = system: CAKI-1

## O=Nc1ccc(O)c2ncccc12
[1]
  GI50: 4.2 µM (inactive)
[2]
  GI50: 2.98 µM (inactive)
[3]
  GI50: 1.44 µM (inactive)
[4]
  GI50: 0.875 µM (active)
[5]
  GI50: 2.21 µM (inactive)
[6]
  GI50: 10.5 µM (inactive)
[7]
  GI50: 2.38 µM (inactive)
[8]
  GI50: 8.18 µM (inactive)
[9]
  GI50: 0.711 µM (active)
[10]
  GI50: 12.6 µM (inactive)
[11]
  GI50: 16.1 µM (inactive)
[12]
  GI50: 3.09 µM (inactive)
[13]
  GI50: 2.51 µM (inactive)
[14]
  GI50: 2.5 µM (inactive)
[15]
  GI50: 1.75 µM (inactive)
[16]
  GI50: 2.8 µM (inactive)
[17]
  GI50: 4.79 µM (inactive)
[18]
  GI50: 0.328 µM (active)
[19]
  GI50: 1.67 µM (inactive)
[20]
  GI50: 16.3 µM (inactive)

## COc1ccc(/C=C2/CSC/C(=C/c3ccc(OC)c(OC)c3)C2=O)cc1OC
[1]
  GI50: 2.02 µM (inactive)
[2]
  GI50: 4.65 µM (inactive)
[3]
  GI50: 2.03 µM (inactive)
[4]
  GI50: 1.69 µM (inactive)
[5]
  GI50: 2.56 µM (inactive)
[6]
  GI50: 2.88 µM (inactive)
[7]
  GI50: 1.93 µM (inactive)
[8]
  GI50: 1.77 µM (inactive)
[9]
  GI50: 1.42 µM (inactive)
[10]
  GI50: 6.73 µM (inactive)
[11]
  GI50: 2.24 µM (inactive)
[12]
  GI50: 8.93 µM (inactive)
[13]
  GI50: 6.4 µM (inactive)
[14]
  GI50: 2.27 µM (inactive)
[15]
  GI50: 2.58 µM (inactive)
[16]
  GI50: 3.67 µM (inactive)
[17]
  GI50: 1.19 µM (inactive)
[18]
  GI50: 0.828 µM (active)
[19]
  GI50: 3.34 µM (inactive)
[20]
  GI50: 3.49 µM (inactive)

## CCc1cccc(C(C)C)c1C1C(=O)C(=O)N(c2nc3ccccc3s2)C(=O)C1=O
[1]
  GI50: > 100 µM (inactive)
[2]
  GI50: > 100 µM (inactive)
[3]
  GI50: > 100 µM (inactive)
[4]
  GI50: > 100 µM (inactive)
[5]
  GI50: > 100 µM (inactive)
[7]
  GI50: > 100 µM (inactive)
[8]
  GI50: > 100 µM (inactive)
[9]
  GI50: > 100 µM (inactive)
[10]
  GI50: > 100 µM (inactive)
[11]
  GI50: > 100 µM (inactive)
[12]
  GI50: 38.7 µM (inactive)
[13]
  GI50: > 100 µM (inactive)
[14]
  GI50: > 100 µM (inactive)
[16]
  GI50: > 100 µM (inactive)
[17]
  GI50: > 100 µM (inactive)
[18]
  GI50: > 100 µM (inactive)
[19]
  GI50: > 100 µM (inactive)
[20]
  GI50: > 100 µM (inactive)

## Cc1ccc(NC(=O)C(=O)C(C#N)c2ccccc2C)cc1C (configuration not stated)
[1]
  GI50: > 68.2 µM (inactive)
[2]
  GI50: > 100 µM (inactive)
[3]
  GI50: > 100 µM (inactive)
[4]
  GI50: > 100 µM (inactive)
[5]
  GI50: > 100 µM (inactive)
[7]
  GI50: > 100 µM (inactive)
[8]
  GI50: > 100 µM (inactive)
[9]
  GI50: > 44.9 µM (inactive)
[10]
  GI50: > 100 µM (inactive)
[11]
  GI50: > 45.5 µM (inactive)
[12]
  GI50: > 100 µM (inactive)
[13]
  GI50: > 69.3 µM (inactive)
[14]
  GI50: > 91.6 µM (inactive)
[16]
  GI50: > 100 µM (inactive)
[17]
  GI50: > 41.8 µM (inactive)
[18]
  GI50: > 100 µM (inactive)
[19]
  GI50: > 100 µM (inactive)
[20]
  GI50: > 100 µM (inactive)

## O=C1C[C@H](c2ccc(O)c(O)c2)Oc2cc(O)cc(O)c21
[1]
  GI50: > 100 µM (inactive)
[2]
  GI50: 29.8 µM (inactive)
[3]
  GI50: > 100 µM (inactive)
[4]
  GI50: 61.7 µM (inactive)
[5]
  GI50: > 100 µM (inactive)
[7]
  GI50: > 100 µM (inactive)
[8]
  GI50: > 100 µM (inactive)
[9]
  GI50: > 100 µM (inactive)
[10]
  GI50: > 100 µM (inactive)
[11]
  GI50: > 100 µM (inactive)
[12]
  GI50: 56.8 µM (inactive)
[13]
  GI50: 83.9 µM (inactive)
[14]
  GI50: > 100 µM (inactive)
[16]
  GI50: > 100 µM (inactive)
[17]
  GI50: > 100 µM (inactive)
[18]
  GI50: 27 µM (inactive)
[19]
  GI50: > 100 µM (inactive)
[20]
  GI50: > 100 µM (inactive)

## CC(=O)OC1COC(N2C(=O)C(=O)c3ccccc32)C(OC(C)=O)C1OC(C)=O (configuration not stated)
[1]
  GI50: > 100 µM (inactive)
[2]
  GI50: > 100 µM (inactive)
[3]
  GI50: > 100 µM (inactive)
[4]
  GI50: 68.9 µM (inactive)
[5]
  GI50: > 100 µM (inactive)
[7]
  GI50: > 100 µM (inactive)
[8]
  GI50: > 100 µM (inactive)
[9]
  GI50: > 100 µM (inactive)
[10]
  GI50: > 100 µM (inactive)
[11]
  GI50: > 100 µM (inactive)
[12]
  GI50: > 100 µM (inactive)
[13]
  GI50: > 100 µM (inactive)
[14]
  GI50: > 100 µM (inactive)
[16]
  GI50: > 100 µM (inactive)
[17]
  GI50: > 100 µM (inactive)
[18]
  GI50: > 100 µM (inactive)
[19]
  GI50: > 100 µM (inactive)
[20]
  GI50: > 100 µM (inactive)

## C=C1C(=O)C=C2C=C3C(=O)C(C)(C)C[C@]3(O)C12C (some centres not stated)
[1]
  GI50: 1.81 µM (inactive)
[2]
  GI50: 7.11 µM (inactive)
[3]
  GI50: > 43.2 µM (inactive)
[4]
  GI50: 8.39 µM (inactive)
[5]
  GI50: 17.8 µM (inactive)
[6]
  GI50: 1.54 µM (inactive)
[7]
  GI50: 1.26 µM (inactive)
[8]
  GI50: 9.4 µM (inactive)
[9]
  GI50: 0.684 µM (active)
[10]
  GI50: 19.3 µM (inactive)
[11]
  GI50: 1.5 µM (inactive)
[12]
  GI50: 1.59 µM (inactive)
[13]
  GI50: 14.2 µM (inactive)
[14]
  GI50: 20 µM (inactive)
[15]
  GI50: 3.76 µM (inactive)
[16]
  GI50: 22.5 µM (inactive)
[17]
  GI50: 0.968 µM (active)
[18]
  GI50: 0.452 µM (active)
[19]
  GI50: 1.48 µM (inactive)
[20]
  GI50: 1.82 µM (inactive)
